Test results reported in publication PMC3816671, “Cell Penetrating Peptoids (CPPos): Synthesis of a Small Combinatorial Library by Using IRORI MiniKans” (Pharmaceuticals, 2012).

Tests used:
HeLa cells = assay: Cellular uptake and intracellular distribution of rhodamine B-labeled peptoids by live-cell confocal imaging; format: cell-based, human; settings: 1 × 10^4 HeLa wt cells, 1 µM peptoid, 24 h, 37 °C, confocal fluorescence imaging, co-staining Hoechst 33342 and Mitotracker Green
Protocol: All procedures with mammalian cells were carried out under sterile conditions. 1 × 10^4 HeLa (human cervix carcinoma) cells were plated into each well of a 8-well µslide from IBIDI (Ibitreat, Martinsried, Germany) and cultured in 200 µL Dulbecco’s modified Eagle’s medium, high glucose, (DMEM, Invitrogen, Karlsruhe, Germany) supplemented with 10% fetal calf serum (FCS, PAA) and1 U/mL penicillin/streptomycin at 37 °C, 5% CO2.
The purified peptoids were dissolved in bidistilled water to yield a 2 mM stock solution and were further diluted with 10% DMEM to yield the respective incubation media. The cells were cultured as described above were incubated with the different peptoids at final concentrations of 1–10 µM. Cellular uptake of the peptoids was measured by live-cell imaging after 1 and 24 h as fixation would alter the intracellular distribution as described for other polycationic species.
Visualization of the peptoids was achieved by confocal microscopy using a Leica TCS-SP5 II, equipped with a DMI6000 microscope. The peptoids were excited at 561 nm using a DPSS laser. […] Fluorescence emission was measured at 417–468 nm for the detection of the nuclei, at 499–552 nm for the detection of the mitochondria, and 593–696 nm for the detection of the rhodamine B labeled peptoids. […]

[1] = tested on: mitochondria of HeLa cells; assay: Co-localization with the mitochondrial marker Mitotracker Green (Pearson's correlation of fluorescence profiles); format: cell-based, human; settings: live-cell confocal fluorescence imaging, co-staining with 100 nM Mitotracker Green, 37 °C
Protocol: HeLa cells were treated with 1 and 10 µM of the corresponding peptoids for 1 and 24 h. […] However, for the better visualization of the organellar accumulation the incubation period was prolonged to 24 h. Co-localization experiments were performed by co-staining of the mitochondria with the mitochondrial marker Mitotracker Green^TM (Figure 5 and Figure 6).
By colocalizing the peptides with the mitochondrial marker Mitotracker Green^TM Pearson’s correlation coefficients (Rr) of the corresponding fluorescence profiles could be calculated reflecting mitochondrial specificity.
All procedures with mammalian cells were carried out under sterile conditions. […]
The purified peptoids were dissolved in bidistilled water to yield a 2 mM stock solution and were further diluted with 10% DMEM to yield the respective incubation media. […] Cellular uptake of the peptoids was measured by live-cell imaging after 1 and 24 h as fixation would alter the intracellular distribution as described for other polycationic species.
Visualization of the peptoids was achieved by confocal microscopy using a Leica TCS-SP5 II, equipped with a DMI6000 microscope. […] Fluorescence emission was measured at 417–468 nm for the detection of the nuclei, at 499–552 nm for the detection of the mitochondria, and 593–696 nm for the detection of the rhodamine B labeled peptoids. […]

Substance: RhoB-Npmb-Nlys3-NH2 [compound 11]
- Intracellular localization (HeLa cells): mitochondrial localization
- Pearson's correlation coefficient (Rr) of the fluorescence profiles of peptoid and Mitotracker Green, reflecting mitochondrial specificity [1]: +0.68
